Measured values published in ChEMBL document CHEMBL2146378, “Curcumin is an inhibitor of calcium/calmodulin dependent protein kinase II” (Bioorg Med Chem, 2012).

Legend:
[1] = target: T1, Calcium/calmodulin-dependent protein kinase type II subunit alpha (Homo sapiens, UniProt Q9UQM7); test: Inhibition of alphaCaMK2 using GST-NR2A as substrate incubated for 1 min prior to substrate addition measured after 1 min
[2] = Inhibition of Albino Wistar rat CaMK2 in brain cytosolic fraction using GST-NR2A as substrate incubated for 1 min prior to substrate addition measured after 1 min; format: tissue-based
[3] = Inhibition of Albino Wistar rat CaMK2 autophosphorylation at Thr286 in postsynaptic density fraction using [gamma32P]ATP incubated for 30 secs prior to ATP addition measured after 30 secs
[4] = Inhibition of Albino Wistar rat CaMK2 in postsynaptic density fraction using GST-NR2A as substrate incubated for 1 min prior to substrate addition measured after 1 min in presence of EGTA
[5] = Inhibition of Albino Wistar rat CaMK2 in brain cytosolic fraction using GST-NR2A as substrate incubated for 1 min prior to substrate addition measured after 1 min in presence of EGTA; format: tissue-based
[6] = target: T1, Calcium/calmodulin-dependent protein kinase type II subunit alpha; test: Inhibition of autophosphorylated alphaCaMK2 using GST-NR2A as substrate incubated for 1 min prior to substrate addition measured after 1 min in presence of EGTA
[7] = target: T1, Calcium/calmodulin-dependent protein kinase type II subunit alpha; test: Inhibition of autophosphorylated alphaCaMK2 using GST-NR2A as substrate incubated for 1 min prior to substrate addition measured after 1 min
[8] = target: T1, Calcium/calmodulin-dependent protein kinase type II subunit alpha; test: Inhibition of alphaCaMK2 autophosphorylation at Thr286 using [gamma32P]ATP incubated for 30 secs prior to ATP addition measured after 30 secs
[9] = Inhibition of Albino Wistar rat CaMK2 autophosphorylation at Thr286 in brain cytosolic fraction using [gamma32P]ATP incubated for 30 secs prior to ATP addition measured after 30 secs; format: tissue-based
[10] = Inhibition of Albino Wistar rat CaMK2 in postsynaptic density fraction using GST-NR2A as substrate incubated for 1 min prior to substrate addition measured after 1 min
[11] = target: Calcium/calmodulin-dependent protein kinase type II subunit alpha (Homo sapiens, UniProt Q9UQM7, T286D); test: Inhibition of alphaCaMK2 T286D mutant using GST-NR2A as substrate incubated for 1 min prior to substrate addition measured after 1 min in presence of EGTA
Chain of Calcium/calmodulin-dependent protein kinase type II subunit alpha (Homo sapiens, UniProt Q9UQM7, T286D) (Q9UQM7 whole entry T286D): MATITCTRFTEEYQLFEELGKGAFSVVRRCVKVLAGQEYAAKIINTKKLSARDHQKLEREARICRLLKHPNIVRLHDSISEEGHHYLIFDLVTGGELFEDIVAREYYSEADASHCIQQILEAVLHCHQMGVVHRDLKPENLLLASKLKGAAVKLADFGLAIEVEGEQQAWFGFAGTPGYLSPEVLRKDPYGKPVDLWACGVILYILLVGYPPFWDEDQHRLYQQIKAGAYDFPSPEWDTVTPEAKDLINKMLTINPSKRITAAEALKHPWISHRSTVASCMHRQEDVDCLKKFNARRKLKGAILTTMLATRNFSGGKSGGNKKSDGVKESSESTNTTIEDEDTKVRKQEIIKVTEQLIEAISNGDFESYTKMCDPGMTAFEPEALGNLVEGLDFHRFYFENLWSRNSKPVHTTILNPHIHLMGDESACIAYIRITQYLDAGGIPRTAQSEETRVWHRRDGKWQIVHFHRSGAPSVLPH

T1 sequence (Q9UQM7 whole entry): as the sequence (Q9UQM7 whole entry T286D) above, with D286T counted along it

For `O=C(/C=C/c1ccc(O)cc1)CC(=O)/C=C/c1ccc(O)cc1` [BISDEMETHOXYCURCUMIN], which IC50 [1] is on record?
Its IC50 is 37 µM.

For `COc1cc(/C=C/C(O)=C/C(=O)/C=C/c2ccc(O)cc2)ccc1O` [DEMETHOXYCURCUMIN], which IC50 [1] is on record?
The IC50 was 24 µM.

What does the source list for `COc1cc(/C=C/c2cc(/C=C/c3ccc(O)c(OC)c3)n(-c3ccccc3)n2)ccc1O`?
IC50 [2]: 94 µM; IC50 [3]: 68 µM; IC50 [4]: 62 µM; IC50 [5]: 96 µM; IC50 [6]: 54 µM; IC50 [1]: 37 µM; IC50 [7]: 79 µM; IC50 [8]: 111 µM; IC50 [9]: 80 µM; IC50 [10]: 103 µM

What does the source list for `COc1cc(/C=C/c2cc(/C=C/c3ccc(O)c(OC)c3)[nH]n2)ccc1O` [CURCUMIN PYRAZOLE]?
IC50 [2]: 4.4 µM; IC50 [3]: 7.58 µM; IC50 [4]: 0.34 µM; IC50 [5]: 0.44 µM; IC50 [6]: 0.29 µM; IC50 [1]: 1.49 µM; IC50 [7]: 6.3 µM; IC50 [8]: 6.5 µM; IC50 [9]: 16.3 µM; IC50 [10]: 3.6 µM

For `COc1cc(/C=C/C(=O)CC(=O)/C=C/c2ccc(O)c(OC)c2)ccc1O` (stereo in doubt; 1) [CURCUMIN], which IC50 [1] is on record?
The IC50 was 13 µM.

Which IC50 [2] does the source give for `COc1cc(/C=C/C(=O)CC(=O)/C=C/c2ccc(O)c(OC)c2)ccc1O` (stereo in doubt) [CURCUMIN] here?
The IC50 was 112 µM.

What about the IC50 [3] of the same compound?
The IC50 was 69 µM.

And the IC50 [4]?
Its IC50 is 33 µM.

And the IC50 [5]?
The IC50 was 64 µM.

What about the IC50 [6] of the same compound?
Its IC50 is 34 µM.

What about the IC50 [1] of the same compound?
Its IC50 is 21 µM.

And the IC50 [7]?
Its IC50 is 45 µM.

What about the IC50 [11] of the same compound?
The IC50 was 37 µM.

What about the IC50 [8] of the same compound?
Its IC50 is 33 µM.

And the IC50 [9]?
Its IC50 is 143 µM.

And the IC50 [10]?
The IC50 was 80 µM.

Which results are given for `COc1cc(/C=C/c2cc(/C=C/c3ccc(O)c(OC)c3)on2)ccc1O`?
IC50 [2]: 28.9 µM; IC50 [3]: 22.8 µM; IC50 [4]: 18.9 µM; IC50 [5]: 13.7 µM; IC50 [6]: 0.68 µM; IC50 [1]: 11.4 µM; IC50 [7]: 24.4 µM; IC50 [8]: 18 µM; IC50 [9]: 17.1 µM; IC50 [10]: 22.9 µM
